From patent US9062050B2, “Inhibitor of JAK1 and JAK2” (Eli Lilly and Company, priority 2012, dated 2015)

Assays:
phosphorylation of STAT3 = assay: Mia-Paca2-MSD-pSTAT3 cell-based assay; conditions: Homo sapiens, MIA PaCa-2; Mia-paca2 pancreatic cancer cells, stimulated with conditioned medium; read-out: IC50, inhibits the phosphorylation of STAT3
Description: The Mia-Paca2-MSD (MesoScale Diagnostics)-pSTAT3 cell-based assay is used to examine the potency of compounds at blocking STAT3 phosphorylation in pancreatic cancer cells. Mia-paca2 cells (ATCC) are grown in DMEM complete medium supplemented with 10% FBS at 37° C. in incubator with 5% CO2. Cells are then collected, counted, plated at 4×10^4 cells/well in 96-well plates, and cultured for overnight at 37° C. with 5% CO2. Culture medium is removed from the cells and replaced with serum-free medium containing either vehicle alone (DMSO) or 2× final concentrations of compounds across a range from 0-20 μM at 1:3 dilution (10 dilutions). […] After stimulation, all medium is manually removed as above and cells are lysed in 50 microliters of ice cold 1×MSD lysis buffer (MesoScale Diagnostics, K150DID-2) containing 1×HALT protease and phosphatase inhibitor cocktail ((Thermo Scientific, 78441). The 96-well plates are sealed and then mixed for 2 minutes on an orbital shaker at room temperature, and then immediately frozen at −80° C. overnight. pSTAT3 is detected with the use of the MA6000 MSD Whole Cell Lysate Kit for Phospho-STAT-3 (Tyr 705) (MesoScale Diagnostics, #K150DID-2) as following, plates were blocked with blocking buffer at room temperature for 1-2 hours with shaking, and then washed 4× with washing buffer. […]

JAK2 = JAK2 (Homo sapiens, UniProt O60674); assay: JAK2 EPO-TF1/pSTAT5 cell-based assay (Cellomics ArrayScan HCS); parameters: endogenous in cells; host or cells: TF-1 (human erythroid leukemia) cells; conditions: TF-1 cells, EPO at 1.6 U/mL, relative IC50, n=65; read-out: IC50, inhibits JAK2 (pSTAT5)
JAK2, sequence (O60674 whole entry): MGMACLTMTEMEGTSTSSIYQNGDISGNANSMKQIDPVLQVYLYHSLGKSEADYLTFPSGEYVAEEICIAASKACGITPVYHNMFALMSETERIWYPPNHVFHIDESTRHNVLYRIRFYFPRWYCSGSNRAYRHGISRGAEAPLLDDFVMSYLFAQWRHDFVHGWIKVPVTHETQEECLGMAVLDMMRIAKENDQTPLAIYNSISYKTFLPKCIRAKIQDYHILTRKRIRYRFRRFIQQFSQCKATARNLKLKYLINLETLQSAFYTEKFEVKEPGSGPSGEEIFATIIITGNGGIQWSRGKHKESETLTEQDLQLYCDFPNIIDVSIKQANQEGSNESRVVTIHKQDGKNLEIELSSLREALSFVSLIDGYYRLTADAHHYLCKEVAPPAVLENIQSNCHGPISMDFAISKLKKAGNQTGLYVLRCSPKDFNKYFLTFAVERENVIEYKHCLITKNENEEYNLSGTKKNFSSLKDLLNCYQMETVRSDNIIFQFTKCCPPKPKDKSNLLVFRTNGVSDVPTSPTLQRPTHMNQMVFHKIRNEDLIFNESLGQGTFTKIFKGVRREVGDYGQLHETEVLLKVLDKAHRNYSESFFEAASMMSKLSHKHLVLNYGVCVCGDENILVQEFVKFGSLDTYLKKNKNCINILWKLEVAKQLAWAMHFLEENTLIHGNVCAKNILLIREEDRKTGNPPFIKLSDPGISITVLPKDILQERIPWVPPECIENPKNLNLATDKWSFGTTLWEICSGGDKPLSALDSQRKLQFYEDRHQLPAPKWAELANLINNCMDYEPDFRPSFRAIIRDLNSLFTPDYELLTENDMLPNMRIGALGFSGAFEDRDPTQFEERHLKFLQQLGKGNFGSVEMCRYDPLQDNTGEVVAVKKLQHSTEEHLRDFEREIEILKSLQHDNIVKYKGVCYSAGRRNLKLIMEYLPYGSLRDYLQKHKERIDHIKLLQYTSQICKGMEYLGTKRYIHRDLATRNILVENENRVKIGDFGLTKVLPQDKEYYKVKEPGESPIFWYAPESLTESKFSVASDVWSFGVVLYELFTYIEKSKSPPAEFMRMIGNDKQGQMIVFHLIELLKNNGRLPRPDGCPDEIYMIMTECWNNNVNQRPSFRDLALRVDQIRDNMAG
Source text: The JAK2 EPO-TF1/pSTAT5 cell-based assay mimics the constitutive activation of JAK2-STAT5 in erythroid progenitor cells, which drives the overproduction of red blood cells, a marker of polycythemia vera (PV). Therefore, the EPO-TF1/pSTAT5 cell-based assay enables the evaluation of the JAK2 cellular activity of JAK compounds in vitro.
TF-1 (human erythroid leukemia) cells are maintained in RPMI 1640 (RPMI-1640 was developed by Moore et. al. at Roswell Park Memorial Institute. The formulation is based on the RPMI-1630 series of media utilizing a bicarbonate buffering system and alterations in the amounts of amino acids and vitamins.) with 10% fetal bovine serum (FBS), 0.075% sodium bicarbonate, 1 mM sodium pyruvate, 1× antibiotic/antimycotic (Invitrogen, Carlsbad, Calif.) and 0.45% glucose. The medium is supplemented with GM-CSF (granulocyte-macrophage colony-stimulating factor) at a final concentration of 2 ng/mL. Cells are kept at 37° C. with 5% CO2. […] TF-1 cells are counted and cells are collected to seed 2×10^7 cells per 96-well plate at a density of 2×10^5 cells per well. […]
To perform the assay, serum-starved cells are collected and washed once with unsupplemented RPMI 1640 medium. […] An aliquot of 200 μL of 1 to 10 dilution of Mouse anti-pSTAT5 (pY694) Alexa Fluor 647® in fluorescence activated cell sorting (FACS) buffer is added to the cells. […]

Compound `Cc1cc(Nc2ccc3ncn([C@@H]4CCc5ccc(F)cc54)c3n2)[nH]n1.Cl.Cl` [Example 1, 3-[(1R)-6-fluoro-2,3-dihydro-1H-inden-1-yl]-N-(3-methyl-1H-pyrazol-5-yl)-3H-imidazo[4,5-b]pyridin-5-amine dihydrochloride] has an IC50 (phosphorylation of STAT3) of 0.012 µM and an IC50 (JAK2) of 0.035 µM.
